Experiments:
[1] = tested on: Glycogen synthase kinase 3 (GSK3); conditions: cited from earlier work
[2] = tested on: H2B precipitation with GST-p12_M63I, 293T cells; experiment: Kinase inhibition, H2B pull-down with GST-p12_M63I; format: cell-based; conditions: 3.5 h with nocodazole and 10 μM MG132, immunoblot
Description: (§1) Glycogen synthase kinase 3 (GSK3) and cyclin-dependent kinase 5 (CDK5) were predicted to phosphorylate Mo-MLV p12 on S61, by the NetPhos 3.1 kinase prediction algorithm. […] These drugs were tested in our biochemical assays for their ability to reduce GST-p12_M63I phosphorylation and chromatin association. In our assays, cells transiently-expressing GST-p12_M63I were cultured in media containing nocodazole overnight, prior to the addition of the kinase inhibitors. […] After removal of the drugs, cells were immediately washed and lysed for glutathione-sepharose bead pull-down assays. The eluates from the beads were analysed by SDS-PAGE followed by sequential staining with PQ and SR dyes to quantify the phosphorylation levels of GST-p12_M63I. LiCl treatment had little effect on GST-p12_M63I phosphorylation (Fig 7A, lane 2). […] To correlate GST-p12_M63I phosphorylation with its ability to interact with chromatin, we quantified the amounts of H2B in the pull-down eluates by immunoblotting. […] The short period of kinase inhibition used in our assays, may have limited the effects observed on GST-p12_M63I phosphorylation.
(§2) GST-p12 proteins were expressed in 293T cells from pCAGGS/GST-derived plasmids by transient transfection using Turbofect (Thermo Fisher Scientific). Approximately 24 h after transfection, cells were changed into fresh media containing either 400 ng/ml nocodazole (Sigma) or 2 μg/ml aphidicolin (Sigma) and incubated overnight at 37°C. The synchronisation of the cell cultures after drug treatment was assessed by propidium iodide staining and cell cycle phase analysis by flow cytometry. Cells to be used in pull down assays were washed and lysed in 20 mM Tris pH 8.0, 300 mM NaCl, 1 mM EDTA, 10% Glycerol, 1% Triton X-100, protease inhibitors (Roche), phosphatase inhibitors (Merck). Lysis was facilitated by passing the lysates through a 19-gauge needle x7 and sonication, x7 pulses, 30 s ON and 30 s OFF, in an ice bath (Decon FS100). […] ProQ diamond and Sypro ruby staining (Thermo Fisher Scientific) of gels was visualised and quantified on a ChemiDoc imaging system (Bio-Rad). […]

[3] = tested on: GST-p12_M63I phosphorylation in 293T cells; experiment: Kinase inhibition, GST-p12_M63I phosphorylation (PQ/SR); format: cell-based
Description: as §1, §2

[4] = tested on: GST-p12_WT; experiment: SILAC-MS of proteins enriched with GST-p12_WT relative to GST; format: binding, Mo-MLV; conditions: for SDs from the mean: log2(GST-p12_WT, Heavy/GST, Light)
Excerpt: To test whether GST-p12 was acting like the p12 region of Gag, we used a global proteomic approach based on stable isotope labelling by amino acids in cell culture (SILAC)-mass spectrometry (MS) to look for host proteins that interact with GST-p12 [35, 36]. A schematic diagram of the workflow is illustrated in Fig 4A. Briefly, GST, GST-p12_mut14 and GST-p12_WT were transiently-expressed in 293T cells cultured in light (R0/K0), medium (R6/K4) and heavy (R10/K8) SILAC media, respectively. Next, lysates of nocodazole treated transfected cells were prepared, normalised and used for parallel pull-down assays with glutathione-sepharose beads. The eluates from the beads were then pooled in a 1:1:1 ratio and subjected to LC-MS/MS analysis. The experiment was performed using biological replicates to test reproducibility of the mass-spec hits. The pull-down assays for this experiment were performed using mitotic cell lysates to facilitate identification of any potential chromatin interactions that were previously missed.
After removal of obvious contaminants (e.g. keratin) and non-quantified hits, 948 and 879 proteins were identified in replicates 1 and 2 (R1 and R2) of the experiment respectively (the false discovery rate (FDR) was set at 5%). To select proteins enriched in the heavy-labelled (H) GST-p12_WT sample relative to the light-labelled (L) GST sample, we compared the log2(H/L) silac ratios of the mass-spectrometry hits. When plotted as a frequency distribution, the log2(H/L) ratios of each replicate fitted well to a normal distribution curve (R^2 ≥ 0.98), allowing the mean and standard deviation to be accurately estimated (Fig 4B). In this experiment, contaminants/non-specifically bound cellular proteins were assumed to cluster around the mean of the distribution. […] Twenty one such proteins were identified in R1 and 22 identified in R2 (Fig 4B Venn diagram). […] These proteins were then ranked based on normalised abundance in the group. In mass-spectrometry analysis, larger proteins are in general assigned higher scores. Therefore, to control for protein size, we divided the number of peptide spectral matches identified for each protein with its length and then normalised the values across the group (Fig 4C and 4D). When ranked this way, the clathrin heavy chain (CLTC), clathrin interactor 1 (CLINT1) and NEDD4-like E3 ubiquitin ligase (WWP2) were identified as the top three hits. […] The function of clathrin in MLV infection is unclear. […] Thus, clathrin binding may be relevant to the early stages of MLV replication and should be investigated further.
For SILAC-MS experiments, 293T cells were grown is media containing light (R0K0, ^12C-Arginine and ^12C-Lysine), medium (R6K4, ^13C-Arginine and Lysine-4,4,5,5-d4) or heavy (R10K8, ^13C+^15N-Arginine and ^13C+^15N-Lysine) versions of L-Arginine and L-Lysine amino acids (Pierce) for a minimum of 6 doublings before transient expression of GST-p12 proteins. After performing the glutathione-sepharose pull-down assays equivalent volumes of the beads eluates were pooled and submitted to the Bristol University Proteomics Facility for RP nano-LC-MS/MS analysis. This analysis was performed on an LTQ-Orbitrap Velos mass spectrometer in line with a Dionex Ultimate 3000 nanoHPLC system as described in [53].
Supplementary file ppat.1007117.s005.xlsx: S1 Table Results from the first SILAC-MS analysis. GST, Mo-MLV GST-p12_mut14 or GST-p12_WT were transiently-expressed in 293T cells cultured in light (R0/K0), medium (R6/K4) and heavy (R10/K8) SILAC media, respectively. Mitotic cell lysates were subsequently used for glutathione-sepharose bead pull-down assays. Bead eluates were pooled in a 1:1:1 ratio and then analysed by LC-MS/MS. […] (XLSX) Click here for additional data file.

[5] = tested on: nucleosome binding to immobilised p12 CTD peptides; experiment: BLI competition, nucleosome binding to immobilised p12 CTD peptides; conditions: soluble hCBS 100 μM
Description: To identify whether p12 binds to the same nucleosomal docking site as the CBS from PFV Gag, we then tested the ability of p12 CTD peptides to block the binding of nucleosomal arrays to hCBS and vice versa (Fig 9E and 9F).
The binding of PFV hCBS and p12 CTD peptides to recombinant H3.3 poly-nucleosomes (Active Motif) was measured using biolayer interferometry on an Octet RED system (Pall ForteBio Corp). The peptides were synthesised with a N-terminal biotin tag and GGGG linker. The Mo-MLV, FeLV and GaLV p12 CTD peptide sequences used are highlighted in bold in Fig 5C. A negative control was included that contained an R66A change in the Mo-MLV p12_M63I CTD peptide. Mo-MLV phos p12_M63I CTD was also synthesised with a phosphorylated S61 residue. The hCBS (positive control) sequence used corresponds to the CBS of PFV Gag ([…]). The biotinylated peptides were loaded onto streptavidin biosensors (Pall ForteBio Corp) at 0.5 μg/ml for 120 s in 10 mM HEPES pH 7.5, 150 mM NaCl, 0.005% (v/v) Tween 20. Following a buffer wash, the biosensors were incubated with serially-diluted nucleosome preparations (~0.5–250 nM) for 900–5400 s to measure association. Experiments were performed at 25°C and sample plates were agitated at 1000 rpm. Equilibrium binding amplitudes were determined by exponential least squares curve fitting of the association phase. The estimated binding amplitudes were then plotted against approximate nucleosome concentrations on GraphPad Prism 7. Equilibrium binding constant (Kd) and maximum specific binding (Bmax) were calculated by fitting the data to a non-linear regression model. Experiments were performed at least in duplicate and the data pooled for fitting. For competition assays, soluble non-biotin tagged peptides were added to the nucleosomal arrays at 100 μM to inhibit nucleosome binding prior to recording BLI measurements with biotinylated peptide immobilised on sensor probes. The non-biotin tagged peptide sequences were: hCBS—[…]; hCBS_L539A/R540A - […]; p12_WT—[…]; p12_R66A - […].

Compound	Normalised (PSMs/Length) ([4]; Replicate 1)	PSMs ([4]; Replicate 1)	PSMs/Length ([4]; Replicate 1)	SDs from the mean ([4]; Replicate 1)	Normalised (PSMs/Length) ([4]; Replicate 2)	PSMs ([4]; Replicate 2)	PSMs/Length ([4]; Replicate 2)	SDs from the mean ([4]; Replicate 2)	further results
[Cl-].[Li+] [LiCl]									inhibition of GSK3 [1]: shown to inhibit GSK3; effect on chromatin pull down ([2]; LiCl 40 mM): no significant effect; effect on GST-p12_M63I phosphorylation ([3]; LiCl 40 mM, 3.5 h with nocodazole and 10 μM MG132): little effect
CC[C@H](CO)Nc1nc(NCc2ccccc2)c2ncn(C(C)C)c2n1 [roscovitine]									reduction of H2B precipitation by kinase inhibitor ([2]; roscovitine 75 μM, kenpaullone 40 μM): ~ 1.5 fold; reduction of GST-p12_M63I phosphorylation by kinase inhibitor ([3]; 3.5 h with nocodazole and 10 μM MG132, LiCl 40 mM, roscovitine 75 μM, kenpaullone 40 μM): ~ 1.5 fold
Clathrin heavy chain 1: clathrin heavy chain, Q00610	49.383	90	0.05373	7.774	51.3165	96	0.05731	7.772	
Inner centromere protein: cDNA FLJ31633, highly similar to this protein (fragment), B3KPD3	2.444	2	0.00266	6.525	1.191	1	0.00133	13.4521	
NEDD4-like E3 ubiquitin-protein ligase WWP2: O00308	9.508	9	0.01034		9.262	9	0.01034	11.5377	
NQGGYNLRPRTYQP [soluble hCBS, soluble non-biotin tagged hCBS peptide]									competition with binding of immobilised FeLV to nucleosomal arrays [5]: could compete with the binding; competition with binding of immobilised GaLV to nucleosomal arrays [5]: could compete with the binding; competition with binding of immobilised Mo-MLV p12_M63I to nucleosomal arrays [5]: could compete with the binding; competition with binding of immobilised Mo-MLV p12_WT to nucleosomal arrays [5]: could compete with the binding
Phosphatidylinositol-4-phosphate 3-kinase C2domain-containing alpha polypeptide: cDNA FLJ53905, highly similar to this protein, B4DG55	2.815	4	0.003063		6.17	9	0.006891	6.685	
Protein transport protein Sec16A: F1T0I1	1.969	5	0.002142	3.112	1.918	5	0.002142	2.575	
